Test results: patent publication US9422293B2 (priority 2006, dated 2016)
Counter-ions that a name gives are not always drawn.

Target: rat TRPV1 (Rattus norvegicus (Rat), UniProt O35433)
Details: read-out: Rat IC50

rat TRPV1, sequence (O35433 whole entry): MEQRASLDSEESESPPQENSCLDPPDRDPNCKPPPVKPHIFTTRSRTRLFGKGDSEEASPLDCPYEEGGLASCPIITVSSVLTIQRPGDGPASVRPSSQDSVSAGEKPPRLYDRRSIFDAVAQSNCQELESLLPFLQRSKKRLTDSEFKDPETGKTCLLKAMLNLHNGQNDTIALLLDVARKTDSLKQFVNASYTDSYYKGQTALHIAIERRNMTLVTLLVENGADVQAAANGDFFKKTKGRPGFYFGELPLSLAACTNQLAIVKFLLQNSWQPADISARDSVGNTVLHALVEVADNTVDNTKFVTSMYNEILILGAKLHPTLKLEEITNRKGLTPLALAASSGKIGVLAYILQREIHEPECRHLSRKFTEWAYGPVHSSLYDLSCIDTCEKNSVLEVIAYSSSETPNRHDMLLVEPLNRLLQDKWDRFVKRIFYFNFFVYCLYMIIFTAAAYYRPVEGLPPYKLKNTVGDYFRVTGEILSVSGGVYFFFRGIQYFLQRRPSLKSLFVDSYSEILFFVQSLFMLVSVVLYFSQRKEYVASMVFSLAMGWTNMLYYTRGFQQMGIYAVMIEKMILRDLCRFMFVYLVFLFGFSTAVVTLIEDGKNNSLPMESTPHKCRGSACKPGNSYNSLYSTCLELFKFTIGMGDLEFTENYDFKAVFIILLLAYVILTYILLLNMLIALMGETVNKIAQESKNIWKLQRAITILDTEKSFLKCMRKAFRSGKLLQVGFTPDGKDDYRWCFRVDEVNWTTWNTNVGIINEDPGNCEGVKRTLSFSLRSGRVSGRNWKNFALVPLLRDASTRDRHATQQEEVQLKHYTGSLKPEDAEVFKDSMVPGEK

| SMILES | IC50 [nM] |
| --- | --- |
| CN(C)c1nc2c(c(NCc3ccccc3)n1)CCN(c1ncccc1C(F)(F)F)CC2 [Example 70B, N^4-Benzyl-N^2,N^2-dimethyl-7-(3-trifluoromethyl-pyridin-2-yl)-6,7,8,9-tetrahydro-5H-pyrimido[4,5-d]azepine-2,4-diamine trifluoroacetic acid salt] | 4400 |
| Cc1cc(C(F)(F)F)ccc1Nc1nc(OC2CCCC2)nc2c1CCN(c1ncccc1C(F)(F)F)CC2 [Example 310, 2-(Cyclopentyloxy)-N-[2-methyl-4-(trifluoromethyl)phenyl]-7-[3-(trifluoromethyl)pyridin-2-yl]-6,7,8,9-tetrahydro-5H-pyrimido[4,5-d]azepin-4-amine] | 70 |
| CC(C)c1nc2c(c(NCCc3c(Cl)cccc3Cl)n1)CCN(c1ncccc1C(F)(F)F)CC2 [Example 125, N-[2-(2,6-Dichlorophenyl)ethyl]-2-(1-methylethyl)-7-[3-(trifluoromethyl)pyridin-2-yl]-6,7,8,9-tetrahydro-5H-pyrimido[4,5-d]azepin-4-amine] | 610 |
| FC(F)(F)c1ccc(Nc2nc(N3CCCCCC3)nc3c2CCN(c2ncccc2C(F)(F)F)CC3)cc1 [Example 222, 2-Azepan-1-yl-N-[4-(trifluoromethyl)phenyl]-7-[3-(trifluoromethyl)pyridin-2-yl]-6,7,8,9-tetrahydro-5H-pyrimido[4,5-d]azepin-4-amine] | 20 |
| Fc1cc(Nc2nc(N3CCCCC3)nc3c2CCN(c2ncccc2C(F)(F)F)CC3)ccc1C(F)(F)F [Example 157, N-[3-Fluoro-4-(trifluoromethyl)phenyl]-2-piperidin-1-yl-7-[3-(trifluoromethyl)pyridin-2-yl]-6,7,8,9-tetrahydro-5H-pyrimido[4,5-d]azepin-4-amine] | 70 |
| CC(C)(C#N)c1ccc(Nc2nc(N3CCCCC3)nc3c2CCN(c2ncccc2C(F)(F)F)CC3)cc1 [Example 384, 2-Methyl-2-{4-[2-piperidin-1-yl-7-(3-trifluoromethyl-pyridin-2-yl)-6,7,8,9-tetrahydro-5H-pyrimido[4,5-d]azepin-4-ylamino]-phenyl}-propionitrile] | 40 |
| CC(C)c1nc2c(c(NCCc3ccc(Cl)c(Cl)c3)n1)CCN(c1ncccc1C(F)(F)F)CC2 [Example 108, [2-(3,4-Dichloro-phenyl)-ethyl]-[2-isopropyl-7-(3-trifluoromethyl-pyridin-2-yl)-6,7,8,9-tetrahydro-5H-pyrimido[4,5-d]azepin-4-yl]-amine] | 940 |
| FC(F)(F)c1cccnc1N1CCc2nc(N3CCCCC3)nc(NCc3ccc(Cl)c(Cl)c3)c2CC1 [Example 251, N-[(3,4-Dichlorophenyl)methyl]-2-piperidin-1-yl-7-[3-(trifluoromethyl)pyridin-2-yl]-6,7,8,9-tetrahydro-5H-pyrimido[4,5-d]azepin-4-amine] | 1980 |
| CC(C)(C(=O)O)c1ccc(Nc2nc(N3CCCCC3)nc3c2CCN(c2ncccc2C(F)(F)F)CC3)cc1 [Example 186, 2-Methyl-2-[4-({2-piperidin-1-yl-7-[3-(trifluoromethyl)pyridin-2-yl]-6,7,8,9-tetrahydro-5H-pyrimido[4,5-d]azepin-4-yl}amino)phenyl]propanoic acid] | 140 |
| FC(F)(F)c1ccc(Nc2nc(NC3CC3)nc3c2CCN(c2ncccc2C(F)(F)F)CC3)cc1 [Example 55B, N^2-Cyclopropyl-N^4-(4-trifluoromethyl-phenyl)-7-(3-trifluoromethyl-pyridin-2-yl)-6,7,8,9-tetrahydro-5H-pyrimido[4,5-d]azepine-2,4-diamine trifluoroacetic acid salt] | 150 |
| CC(C)c1ccc(Nc2nc(C(C)C)nc3c2CCN(c2ncccc2C(F)(F)F)CC3)cc1 [Example 137, 2-(1-Methylethyl)-N-[4-(1-methylethyl)phenyl]-7-[3-(trifluoromethyl)pyridin-2-yl]-6,7,8,9-tetrahydro-5H-pyrimido[4,5-d]azepin-4-amine] | 60 |
| CC(C)c1nc2c(c(Nc3ccc(S(=O)(=O)C(F)(F)F)cc3)n1)CCN(c1ncccc1C(F)(F)F)CC2 [Example 101B, [2-Isopropyl-7-(3-trifluoromethyl-pyridin-2-yl)-6,7,8,9-tetrahydro-5H-pyrimido[4,5-d]azepin-4-yl]-(4-trifluoromethanesulfonyl-phenyl)-amine trifluoroacetic acid salt] | 990 |
| FC(F)(F)c1ccc(Nc2nc(N3CCC3)nc3c2CCN(c2ncccc2C(F)(F)F)CC3)cn1 [Example 217, 2-Azetidin-1-yl-7-[3-(trifluoromethyl)pyridin-2-yl]-N-[6-(trifluoromethyl)pyridin-3-yl]-6,7,8,9-tetrahydro-5H-pyrimido[4,5-d]azepin-4-amine] | 390 |
| COc1nc2c(c(Nc3ccc(C(F)(F)F)cc3)n1)CCN(c1ncccc1C(F)(F)F)CC2 [Example 62, [2-Methoxy-7-(3-trifluoromethyl-pyridin-2-yl)-6,7,8,9-tetrahydro-5H-pyrimido[4,5-d]azepin-4-yl]-(4-trifluoromethyl-phenyl)-amine] | 53 |
| CC(C)c1nc2c(c(Nc3ccc(C(F)(F)F)cc3F)n1)CCN(c1ncccc1C(F)(F)F)CC2 [Example 155, N-[2-Fluoro-4-(trifluoromethyl)phenyl]-2-(1-methylethyl)-7-[3-(trifluoromethyl)pyridin-2-yl]-6,7,8,9-tetrahydro-5H-pyrimido[4,5-d]azepin-4-amine] | 3280 |
| Cc1nc2ccccc2nc1N1CCc2nc(C(C)C)nc(Nc3ccc(C(F)(F)F)cc3)c2CC1 [Example 34, [2-Isopropyl-7-(3-methyl-quinoxalin-2-yl)-6,7,8,9-tetrahydro-5H-pyrimido-[4,5-d]azepin-4-yl]-(4-trifluoromethyl-phenyl)-amine] | 360 |
| Cc1cc(C(F)(F)F)ccc1Nc1nc(N2CCCC2C(C)C)nc2c1CCN(c1ncccc1C(F)(F)F)CC2 (centres unmarked) [Example 269, 2-[2-(1-Methylethyl)pyrrolidin-1-yl]-N-[2-methyl-4-(trifluoromethyl)phenyl]-7-[3-(trifluoromethyl)pyridin-2-yl]-6,7,8,9-tetrahydro-5H-pyrimido[4,5-d]azepin-4-amine] | 180 |
| FC(F)(F)c1ccc(Nc2nc(Nc3ccccc3)nc3c2CCN(c2ncccc2C(F)(F)F)CC3)cc1 [Example 54, N^2-Phenyl-N^4-(4-trifluoromethyl-phenyl)-7-(3-trifluoromethyl-pyridin-2-yl)-6,7,8,9-tetrahydro-5H-pyrimido[4,5-d]azepine-2,4-diamine] | 230 |
| FC1(F)CN(c2nc3c(c(Nc4ccc(C(F)(F)F)cc4)n2)CCN(c2ncccc2C(F)(F)F)CC3)C1 [Example 241, 2-(3,3-Difluoroazetidin-1-yl)-N-[4-(trifluoromethyl)phenyl]-7-[3-(trifluoromethyl)pyridin-2-yl]-6,7,8,9-tetrahydro-5H-pyrimido[4,5-d]azepin-4-amine] | 170 |
| CC(C)c1nc2c(c(Nc3ccc(C(F)(F)F)cc3)n1)CCN(c1nc3ccccc3nc1C(F)(F)F)CC2 [Example 35, [2-Isopropyl-7-(3-trifluoromethyl-quinoxalin-2-yl)-6,7,8,9-tetrahydro-5H-pyrimido[4,5-d]azepin-4-yl]-(4-trifluoromethyl-phenyl)-amine] | 2400 |
